Measurements from ChEMBL document CHEMBL4622908, “Two new secondary metabolites isolated from Avena sativa L. (Oat) seedlings and their effects on osteoblast differentiation” (Bioorg Med Chem Lett, 2020).

Experiments:
[1] = tested on: C2C12; assay: Induction of osteoblast differentiation in mouse C2C12 cells assessed as increase in ALP expression by ALP staining based assay; type: functional, cell-based
[2] = tested on: C2C12; assay: Cytotoxicity against mouse C2C12 cells assessed as reduction in cell viability at 0.3 to 10 uM by CCK8 assay; type: cell-based; details: c2c12, 10 µM

Compound | Activity [1] | Activity [2]
C[C@@H]1O[C@@H](O[C@H]2[C@H](O[C@H]3CC[C@@]4(C)C(=CC[C@H]5[C@@H]6C[C@@H]7O[C@]8(CC[C@@](C)(CO[C@@H]9O[C@H](CO)[C@@H](O)[C@H](O)[C@H]9O)O8)[C@@H](C)[C@@H]7[C@@]6(C)CC[C@@H]54)C3)O[C@H](CO)[C@@H](O[C@@H]3O[C@H](CO)[C@@H](O)[C@H](O[C@@H]4O[C@H](CO)[C@@H](O)[C@H](O)[C@H]4O)[C@H]3O)[C@@H]2O)[C@H](O)[C@H](O)[C@H]1O | Dose-dependent effect | Non-Toxic
O=c1cc(-c2ccc(O)cc2)oc2cc(O)c([C@@H]3O[C@H](CO)[C@@H](O)[C@H](O)[C@H]3O[C@@H]3OC[C@H](O)[C@H](O)[C@H]3O)c(O)c12 | Dose-dependent effect | Non-Toxic
COC1=CC23/C=C/C(=O)OC[C@@H]4O[C@H](O[C@@H]5CC(C(=O)O)=C[C@@H](OC(=O)/C=C/c6cc(OC)c(c2c6)OC3C[C@H]1O)[C@H]5O)[C@@H](O)[C@H](O)[C@H]4O (stereo not given in full) | Dose-dependent effect | Non-Toxic
O=c1cc(-c2ccc(O)c(O)c2)oc2cc(O)c([C@@H]3O[C@H](CO[C@@H]4OC[C@@H](O)[C@H](O)[C@H]4O)[C@@H](O)[C@H](O)[C@H]3O)c(O)c12 | Dose-dependent effect | Non-Toxic
COc1cc(O)c2c(=O)cc(-c3ccc(O)cc3)oc2c1[C@@H]1O[C@H](CO)[C@@H](O)[C@H](O)[C@H]1O[C@@H]1O[C@@H](C)[C@H](O)[C@@H](O)[C@H]1O | Dose-dependent effect | Non-Toxic
